ChEMBL document CHEMBL1155648, “Three new arylobenzofurans from Onobrychis ebenoides and evaluation of their binding affinity for the estrogen receptor” (J Nat Prod, 2000)

Molecular target: T1, Estrogen receptor (Homo sapiens, UniProt P03372)
T1 sequence (P03372 whole entry): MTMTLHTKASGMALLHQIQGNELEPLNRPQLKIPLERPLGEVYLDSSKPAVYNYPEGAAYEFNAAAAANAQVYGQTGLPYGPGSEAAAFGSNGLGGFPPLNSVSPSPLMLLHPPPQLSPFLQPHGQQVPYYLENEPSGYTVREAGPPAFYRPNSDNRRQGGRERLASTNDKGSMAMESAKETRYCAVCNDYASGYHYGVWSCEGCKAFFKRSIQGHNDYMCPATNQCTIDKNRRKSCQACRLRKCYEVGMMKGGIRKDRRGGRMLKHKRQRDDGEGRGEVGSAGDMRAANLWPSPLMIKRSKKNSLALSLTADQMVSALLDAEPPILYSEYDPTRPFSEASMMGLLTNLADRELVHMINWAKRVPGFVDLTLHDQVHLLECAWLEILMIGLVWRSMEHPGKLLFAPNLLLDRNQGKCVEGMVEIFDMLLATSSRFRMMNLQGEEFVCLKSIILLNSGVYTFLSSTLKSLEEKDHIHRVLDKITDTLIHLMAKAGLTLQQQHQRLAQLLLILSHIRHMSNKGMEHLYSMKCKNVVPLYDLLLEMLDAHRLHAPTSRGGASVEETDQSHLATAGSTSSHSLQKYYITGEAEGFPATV
Assay: Displacement of [3H]estradiol from estrogen receptor

Compound | IC50
COc1cc(O)c2c(C=O)c(-c3ccc(O)cc3O)oc2c1 [EBENFURAN II] | 43 nM
COc1cc2oc(-c3ccc(O)cc3O)cc2cc1O [EBENFURAN I] | 46 nM
